Data taken from patent publication US20140243292A1, “SUBSITUTED 2-(CHROMAN-6-YLOXYL)-THIAZOLES AND THEIR USE AS PHARMACEUTICALS” (Sanofi, priority 2011, published 2014).
Counter-ions that a name gives are not always drawn.

Biological target: T1, human NCX1 (Homo sapiens, UniProt P32418)
T1 construct: expressed in transfected cells
Assay: NCX1 inhibition, reverse mode (Ca2+ influx into cells), FLIPR Fluo-4 assay
Assay type: cell-based
Settings: inhibition of NCX1 in reverse mode (Ca2+ influx into cells); read-out: NCX1rv IC50
Excerpt: The sodium/calcium exchanger NCX1 can transport calcium ions and sodium ions through the cell membrane. The transport is an exchange of Ca^2+ and Na^+ in two directions depending on membrane potential and ion gradients. At the first direction, named “forward mode” or “calcium export mode”, Ca^2+ is transported out of the cell and Na^+ is transported into the cell. At the other direction, named “reverse mode” or “calcium import mode”, the transport directions are vice versa. The effect of the compounds of the invention on NCX1 was determined in CHO cells stably expressing human NCX1 (gene symbol SLC8A1; cf. WO 2009/115238). The assay is based on the monitoring of intracellular Ca^2+ concentrations using a calcium-sensitive fluorescence dye which is detected by means of a FLIPR device (Fluorimetric Imaging Plate Reader, Molecular Devices).
The assay is based on the monitoring of intracellular Ca^2+ concentrations using the calcium-sensitive dye Fluo-4. CHO cells expressing NCX1 were loaded with the dye by means of the acetoxymethyl ester Fluo-4 AM (Invitrogen, F14202), which is cleaved intracellularly by esterase activity to yield the charged species of free Fluo-4. After an preincubation period with the test compound, Gramicidine (Sigma, G5002) was added. Gramicidine is an ionophor for Na^+ ions mediating an increase of intracellular Na^+ ions. Consequently, intracellular Na^+ ions are exchanged against extracellular Ca^2+ ions (Ca^2+ influx, reverse mode). The intracellular elevation of Ca^2+ ions was detected by measuring the fluorescence of Fluo-4 at a wavelength of 520 nm by a FLIPR device.
Briefly, for the reverse mode transport assay 18000 cells per well were seeded into a 96 well microplate (Corning COSTAR 3904) and incubated overnight in culture medium (1× Nut Mix F12 (Ham) (Gibco, 21765-029); 10% (v/v) fetal calf serum (PAA Gold, A15-649); 450 μg/ml Geneticin (Gibco, 10131-027)). A total volume of 100 μl medium per well was used. For the preparation of the FLIPR assay, the culture medium was removed from the plates and 100 μl of dye solution (2 μM Fluo-4 AM; 0.02% (v/v) Pluronic F-127 (20%, Invitrogen, P3000MP); 0.1% (v/v) bovine albumin solution (30% (v/v), Sigma, A9205) in assay buffer (133.8 mM NaCl (Sigma, S5886); 4.7 mM KCl (Sigma, P3911); 1.25 mM MgCl2 (Merck, 1.05833.0250); 3.5 mM CaCl2 (Merck, 1.02083.0250); 5 mM glucose (Sigma, G7021); 10 mM Hepes (Sigma, H4034); 0.01% (v/v) Pluronic F-127 (5%, Sigma, P2443); 2.5 mM Probenecid (Maybridge, SB00915EB); pH 7.4)) were added into each well. The plates were incubated in the dark at room temperature for 80 min. After the incubation period, the dye solution was removed and the wells were washed with 100 μl of assay buffer. Then 80 μl of a solution of the test compound in assay buffer in different concentrations were added into the wells. The plates were incubated at 16° C. for 45 min. Meanwhile a 60 μM solution of Gramicidine in assay buffer (4° C.) was prepared and stored in the wells of a 96 well microplate (96 well microplate, polypropylene, U-shape (Greiner Bio-One, 650201)) at 4° C. until measurement was started. The fluorescence monitoring was performed at 240 measuring points with measurement intervals of 2 sec. After the fifth measuring point, 40 μl of the Gramicidine solution were added to each well of the assay plates to give a final Gramicidine concentration of 20 μM. For the determination of the IC50 values the minimal fluorescence value was subtracted from the maximal fluorescence value for all measuring points. The calculation of the IC50 values via the percentage inhibitions of Ca^2+ influx into cells (reverse mode) effected by the test compound was performed in Biost@t Speed 2.0.

Compound | IC50 [nM]
2-((S)-2-Phenyl-chroman-6-yloxy)-thiazole-5-carboxylic acid (3-amino-propyl)-amide [compound 289] | 300
2-[2-(2,6-Dimethyl-phenyl)-chroman-6-yloxy]-thiazole-5-carboxylic acid [2-(2-oxo-imidazolidin-1-yl)-ethyl]-amide [compound 347] | 1500
CCn1cc(CNC(=O)c2cnc(Oc3ccc4c(c3)CCC(c3ccccc3)O4)s2)cn1 (stereo not shown) [compound 1] | 300
CCn1nccc1CNC(=O)c1cnc(Oc2ccc3c(c2)CCC(c2ccccc2)O3)s1 (stereo not shown) [compound 3] | 400
O=C(NCc1ccncc1)c1cnc(Oc2ccc3c(c2)CCC(c2ccccc2)O3)s1 (stereo not shown) [compound 4] | 300
Cn1nccc1CNC(=O)c1cnc(Oc2ccc3c(c2)CCC(c2ccccc2)O3)s1 (stereo not shown) [compound 5] | 400
CC(NC(=O)c1cnc(Oc2ccc3c(c2)CCC(c2ccccc2)O3)s1)c1ccncc1 (stereo not shown) [compound 6] | 400
Cc1ncsc1CCNC(=O)c1cnc(Oc2ccc3c(c2)CCC(c2ccccc2)O3)s1 (stereo not shown) [compound 7] | 300
Cc1c(C(C)NC(=O)c2cnc(Oc3ccc4c(c3)CCC(c3ccccc3)O4)s2)cnn1C (stereo not shown) [compound 8] | 800
Cc1cc(CNC(=O)c2cnc(Oc3ccc4c(c3)CCC(c3ccccc3)O4)s2)ccn1 (stereo not shown) [compound 9] | 800
COc1cc(CNC(=O)c2cnc(Oc3ccc4c(c3)CCC(c3ccccc3)O4)s2)ccn1 (stereo not shown) [compound 10] | 600
Nc1cc(CNC(=O)c2cnc(Oc3ccc4c(c3)CCC(c3ccccc3)O4)s2)ccn1 (stereo not shown) [compound 11] | 400
Nc1cc(CNC(=O)c2cnc(Oc3ccc4c(c3)CCC(c3cccc(F)c3)O4)s2)ccn1 (stereo not shown) [compound 12] | 200
O=C(NCc1cnc(Oc2ccc3c(c2)CCC(c2ccccc2)O3)s1)c1cccnc1 (stereo not shown) [compound 15, hydrochloride] | 100
O=C(Cc1cccnc1)NCc1cnc(Oc2ccc3c(c2)CCC(c2ccccc2)O3)s1 (stereo not shown) [compound 16, hydrochloride] | 100
O=C(NCc1nnc2ccccn12)c1cnc(Oc2ccc3c(c2)CCC(c2cccc(F)c2)O3)s1 (stereo not shown) [compound 17, hydrochloride] | 200
O=C(Cc1ccccn1)NCc1cnc(Oc2ccc3c(c2)CCC(c2ccccc2)O3)s1 (stereo not shown) [compound 19, hydrochloride] | 100
Cc1nccc(CNC(=O)c2cnc(Oc3ccc4c(c3)CCC(c3ccccc3)O4)s2)n1 (stereo not shown) [compound 21] | 100
CC[C@H](NC(=O)c1cnc(Oc2ccc3c(c2)CCC(c2ccccc2)O3)s1)c1ccc(OC)nc1 (stereo partly shown) [compound 22] | 400
Cc1nn(C)cc1C(C)NC(=O)c1cnc(Oc2ccc3c(c2)CCC(c2ccccc2)O3)s1 (stereo not shown) [compound 23] | 800
O=C(NCc1ccno1)c1cnc(Oc2ccc3c(c2)CCC(c2ccccc2)O3)s1 (stereo not shown) [compound 24] | 100
O=C(NCc1ccnc(N2CCCC2)c1)c1cnc(Oc2ccc3c(c2)CCC(c2ccccc2)O3)s1 (stereo not shown) [compound 25] | 400
CN(Cc1ccnc(N2CCCC2)c1)C(=O)c1cnc(Oc2ccc3c(c2)CCC(c2ccccc2)O3)s1 (stereo not shown) [compound 26] | 300
CC[C@@H](NC(=O)c1cnc(Oc2ccc3c(c2)CCC(c2ccccc2)O3)s1)c1ccc(OC)nc1 (stereo partly shown) [compound 27] | 300
O=C(NCc1ccnc(N2CCOCC2)c1)c1cnc(Oc2ccc3c(c2)CCC(c2ccccc2)O3)s1 (stereo not shown) [compound 28] | 200
CN(C)c1cc(CNC(=O)c2cnc(Oc3ccc4c(c3)CCC(c3ccccc3)O4)s2)ccn1 (stereo not shown) [compound 29] | 100

Compound | IC50 [nM]
O=C(NCc1ccncc1)c1sc(Oc2ccc3c(c2)CCC(c2ccccc2)O3)nc1C(F)(F)F (stereo not shown) [compound 30, hydrochloride] | 300
Cc1n[nH]c(C)c1C(C)NC(=O)c1cnc(Oc2ccc3c(c2)CCC(c2ccccc2)O3)s1 (stereo not shown) [compound 31] | 1000
Cc1cc(C)nc(CNC(=O)c2cnc(Oc3ccc4c(c3)CCC(c3ccccc3)O4)s2)n1 (stereo not shown) [compound 33] | 200
Cc1noc(C)c1CCNC(=O)c1cnc(Oc2ccc3c(c2)CCC(c2ccccc2)O3)s1 (stereo not shown) [compound 34] | 200
O=C(NCc1nnc2ccccn12)c1cnc(Oc2ccc3c(c2)CCC(c2ccccc2)O3)s1 (stereo not shown) [compound 35] | 600
O=C(NCc1ccncc1)c1cnc(Oc2ccc3c(c2)CC[C@@H](c2ccccc2)O3)s1 [compound 36] | 100
O=C(NCc1ccncc1)c1cnc(Oc2ccc3c(c2)CC[C@H](c2ccccc2)O3)s1 [compound 37] | 200
Cc1noc(C)c1CCCNC(=O)c1cnc(Oc2ccc3c(c2)CCC(c2ccccc2)O3)s1 (stereo not shown) [compound 38] | 300
O=C(NCc1ccncc1Cl)c1cnc(Oc2ccc3c(c2)CCC(c2ccccc2)O3)s1 (stereo not shown) [compound 40] | 400
O=C(NCc1cn2ccccc2n1)c1cnc(Oc2ccc3c(c2)CCC(c2ccccc2)O3)s1 (stereo not shown) [compound 41] | 5000
O=C(NCc1ccnc(O)c1)c1cnc(Oc2ccc3c(c2)CCC(c2ccccc2)O3)s1 (stereo not shown) [compound 42] | 200
O=C(Cc1ccncc1)NCc1cnc(Oc2ccc3c(c2)CCC(c2ccccc2)O3)s1 (stereo not shown) [compound 43, hydrochloride] | 300
O=C(NCc1cnc(Oc2ccc3c(c2)CCC(c2cccc(F)c2)O3)s1)c1cccnc1 (stereo not shown) [compound 44, hydrochloride] | 200
O=C(Cc1cccnc1)NCc1cnc(Oc2ccc3c(c2)CCC(c2cccc(F)c2)O3)s1 (stereo not shown) [compound 45, hydrochloride] | 100
O=C(Cc1ccncc1)NCc1cnc(Oc2ccc3c(c2)CCC(c2cccc(F)c2)O3)s1 (stereo not shown) [compound 46, hydrochloride] | 200
O=S(=O)(NCc1cnc(Oc2ccc3c(c2)CCC(c2ccccc2)O3)s1)c1cccnc1 (stereo not shown) [compound 47, hydrochloride] | 100
O=C(NCc1cnc(Oc2ccc3c(c2)CCC(c2ccccc2)O3)s1)c1ccno1 (stereo not shown) [compound 48] | 100
O=C(NCc1ccno1)c1cnc(Oc2ccc3c(c2)CCC(c2cccc(F)c2)O3)s1 (stereo not shown) [compound 49] | 100
Cn1cnc(S(=O)(=O)NCc2cnc(Oc3ccc4c(c3)CCC(c3ccccc3)O4)s2)c1 (stereo not shown) [compound 50, 1-Methyl-1H-imidazole-4-sulfonic acid [2-(2-phenyl-chroman-6-yloxy)-thiazol-5-ylmethyl]-amide hydrochloride] | 200
Cc1c(CNC(=O)c2cnc(Oc3ccc4c(c3)CCC(c3cccc(F)c3)O4)s2)cnn1C (stereo not shown) [compound 51] | 200
C[C@H](NC(=O)c1cnc(Oc2ccc3c(c2)CCC(c2ccccc2)O3)s1)c1nc(C2CC2)cs1 (stereo partly shown) [compound 52] | 400
CC(C)c1csc([C@H](C)NC(=O)c2cnc(Oc3ccc4c(c3)CCC(c3ccccc3)O4)s2)n1 (stereo partly shown) [compound 53] | 700
C[C@H](NC(=O)c1cnc(Oc2ccc3c(c2)CCC(c2ccccc2)O3)s1)c1nccs1 (stereo partly shown) [compound 54] | 200
O=C(NCc1ccncc1)c1cnc(Oc2ccc3c(c2Cl)CCC(c2ccccc2)O3)s1 (stereo not shown) [compound 55, hydrochloride] | 1200
Cc1nccc(CNC(=O)c2cnc(Oc3ccc4c(c3)CCC(c3cccc(F)c3)O4)s2)n1 (stereo not shown) [compound 56, hydrochloride] | 200
NCc1cnc(Oc2ccc3c(c2)CCC(c2ccccc2)O3)s1 (stereo not shown) [compound 57, C-[2-(2-Phenyl-chroman-6-yloxy)-thiazol-5-yl]-methylamine] | 100
